Results on 2 compounds are retold here after patent US20120059038A1, “[…]” (Astellas Pharma Inc., priority 2009, published 2012).

In brackets after ≈: the same amount, converted by molar mass.

The subject of data set [1] is dormantfungi present around infections. The settings on record: reported in Mycoses, 46, pp. 505-510, 2003; cited from earlier work.
Data set [2] relates to mouse T lymphoma cell line EL-4. Description: Cytotoxicity to EL-4 cells, cell counting kit. It counts as cell-based. As to conditions: 37° C., 72 hours. The method, then: (§1) Cytotoxicity was evaluated by adding a test drug to mouse T lymphoma cell line EL-4 at various concentrations, incubating the cells in a CO2 incubator at 37° C. for 72 hours, counting the cells using a cell counting kit (Wako Pure Chemical Industries, Ltd.), and calculating IC50 values.
For orientation: Tetrazolium dyes change colour on reduction, which living cells bring about.

Data set [3] in a line: Cytotoxicity to EL-4 cells, cell counting kit. The format is cell-based, mouse. The settings on record: mouse, EL-4 mouse T lymphoma cells, 37° C. Here is the method:
as §1

Data set [4] deals with Complex III. Description: Complex III inhibitory activity, ubiquinol-cytochrome c reductase assay using isolated mitochondrial fraction. As to conditions: mitochondrial fraction of Trichophyton mentagrophytes FP2103; kind of value (IC50 or other) not stated. The format is biochemical. Here is the method: A medium (0.1% glucose, 0.2% bacto tryptone, 0.2% K2HPO4, 0.005% MgSO4.7H2O and 0.005% CaC12.2H2O) was poured into an Erlenmeyer flask and sterilized by autoclaving. Conidiophores of Trichophyton mentagrophytes FP2103 were inoculated into the medium, and cultured at 30° C. for 40 hours while shaking on a rotary shaker. The fungus was collected from the cultural solution and dipped in a cell wall lysis enzyme solution {1 M KC1, 25 mM CaC12.2H2O, 10 mM MgC12.6H2O, 5 mg/mL zymolyase-100T (Seikagaku Corporation), 1 mg/mL chitinase (Sigma) and 5 mg/mL drieselase (Sigma)}, and the resulting mixture was stirred at 30° C. for 4 hours. The enzyme treatment solution was filtered through glass funnel filled with gauze to obtain protoplast. A mitochondrial fraction was isolated from the protoplast by using a Mitochondria Isolation Kit (BioChain Institute, Inc.). The Complex III inhibitory activity was measured in the ubiquinol-cytochrome c reductase assay using the isolated mitochondrial fraction (The Journal of Biological Chemistry, 279, pp. 8708-8714, 2004). As a result, the compound A inhibited the complex III at 0.9 ng/mL.

Data set [5] relates to Cryptococcus neoformans FP1739. Description: Antifungal activity, broth microdilution method. As to conditions: minimum inhibitory concentration. The format is cell-based. The method, then:
(§2) Antifungal activities for the following test fungi were determined by a broth microdilution method (Hikaru Kume and Toshikazu Yamazaki, Clinical Microbiology, Vol. 21, No. 5, pp. 573-580, 1994).
In general terms: Dilution methods test growth across graded concentrations, often in twofold steps.

Data set [6] deals with Alternaria alternata AHU9258. Description: Antifungal activity, broth microdilution method. The format is cell-based. As to conditions: minimum inhibitory concentration. Here is the method:
as §2

Data set [7] relates to Aspergillus fumigatus FP1305. Description: Antifungal activity, broth microdilution method. The settings on record: minimum inhibitory concentration. It counts as cell-based. Here is the method:
as §2

Data set [8] relates to Trichophyton rubrum FP596. Description: Antifungal activity, broth microdilution method. The format is cell-based. As to conditions: minimum inhibitory concentration. The method, then:
as §2

The subject of data set [9] is Trichophyton mentagrophytes FP2103. Description: Antifungal activity, broth microdilution method. It counts as cell-based. The settings on record: minimum inhibitory concentration. The method, then:
as §2

With `CN(C/C=C/C#CC(C)(C)C)Cc1cccc2ccccc12` [Terbinafine], the “activity against dormant fungi” value in data set [1] is given as “weak activity”.
In general, IC50 refers to the midpoint of a concentration-inhibition curve. A higher IC50 goes with weaker potency in that assay. For orientation: MIC means the lowest concentration found to suppress growth. High values mean a need for much substance, low ones inhibition by little substance. As to `CCC(C)CC(C)CCC1CCCC(c2c(O)c(C3C(O)C(O)C(O)C3O)cn(C)c2=O)O1` (stereo not drawn) [compound A], the “concentrations showing no cytotoxic effect” value in data set [2] is ≤ 3100 ng/mL. It took 6.2 µg/mL (≈ 13.3 µM) to reach half-maximal inhibition in [3] (IC50 at 72 h). For the same compound, the “concentration at which complex III was inhibited” value in data set [4] is recorded as 0.9 ng/mL. In addition, the MIC was found to be 1.3 µg/mL (≈ 2.78 µM) in [5]; 6.3 µg/mL (≈ 13.5 µM) in data set [6]; 25 µg/mL (≈ 53.5 µM) in data set [7]; 0.1 µg/mL (≈ 0.214 µM) in data set [8]; 0.1 µg/mL (≈ 0.214 µM) in data set [9].
